Entries after “also recorded” stand apart in the source; their conditions may differ.
Experiments:
Format in all cases: cell-based, human
p53 in MCF-7 cells = assay: Immunostaining for nuclear accumulation of p53; settings: MCF-7, 4 and 8 μM, 36 h
Method: Experiment: MCF-7 (5×10^4 cells/well) cells were seeded on glass cover slip in a 24-well cell culture plate. After the cells were attached, they were incubated with 4 and 8 μM (1R,2R,5S)-1c for 36 h, fixed with 3.7% formaldehyde and processed for immunostaining. After fixing, cells were blocked with 2% BSA and incubated with anti-p53 IgG (1:300) and anti-p21 IgG (1:300) for 2 h at 37° C. Primary antibody incubation was followed by Alexa Fluor 568-conjugated sheep anti-mouse secondary IgG (1:400) incubation for 1 h at 37° C. Hoechst 33258 was used to stain the DNA. Immunofluorescence images were captured using Eclipse TE 2000U microscope (Nikon, Tokyo, Japan) at 40× magnification and processed by Image-Pro Plus software (Media Cybernetics, Silver Spring, Md.). To determine the percentage of cells with nuclear accumulation of p53 and p21, 1000 cells were scored in each case. The experiment was repeated thrice.

MCF-7 cells [1] = assay: Live dead assay by flow cytometry using propidium iodide; settings: for Dead % / Live %: 48 h
Method: MCF-7 cells (5 mL) were seeded in 60 mm cell culture dishes at a density of 1.5×10^5 cells/mL. Cells were incubated with 4 and 8 μM (1R,2R,5S)-1c for 48 h for live dead assay. After the required incubation, cells were processed and analyzed by flow cytometry. Percentage of live and dead MCF-7 cells in the absence and presence of 4 and 8 μM (1R,2R,5S)-1c and 4 μM cisplatin was determined by flow cytometry using propidium iodide (PI).

MCF-7 cells [2] = assay: Cell cycle analysis by flow cytometry (PI); settings: 36 h
Method: (§1) Experiment: MCF-7 cells (5 mL) were seeded in 60 mm cell culture dishes at a density of 1.5×10^5 cells/mL. The cells were incubated with 2 and 4 μM (1R,2R,5S)-1c for 36 h for cell cycle analysis. After the required incubation, cells were processed and analyzed by flow cytometry. Cell cycle data was analyzed using Flow Jo software. Cell cycle analysis and mitotic indices of MCF-7 cells in the absence and presence 2 and 4 μM (1R,2R,5S)-1c. Cell cycle analysis was done using flow cytometer after incubating the cells with PI. The data was analyzed using Flow Jo software. Data were average of three independent set of experiments with S.D (±). Mitotic index (percentage of cells in mitosis) was calculated based on DNA morphology of cells stained with Hoechst 33258. Data were average of three independent set of experiments with S.D (±). 1000 cells were scored in each set.

PARP-1 in MCF-7 cells = assay: Western blot analysis for PARP cleavage; settings: MCF-7, 4 and 8 μM, 48 h; cisplatin 4 μM as comparison
Method: Experiment: MCF-7 cells (5 mL) were seeded at a density of 1.5×10^5 cells/mL in 60 mm cell culture dishes. After cell attachment, they were incubated with 4 and 8 μM (1R,2R,5S)-1c and 4 μM cisplatin for 48 h. The cells were then processed and the whole cell lysate was isolated. An equal amount of total protein was resolved on SDS-PAGE and electroblotted onto a PVDF membrane (Millipore). Immunoblotting was performed using specific antibodies against PARP-1 and β-actin. The blots were developed by chemiluminescence using HRP conjugated secondary IgG.

MCF-7 cells [3] = assay: Mitotic index from DNA morphology (Hoechst 33258)
Method: as §1

A549 cells = assay: Sulforhodamine B assay, A549 lung cancer cells; settings: SRB
Method: The present invention further provides a Sulforhodamine B assay method for investigating the anti-cancer efficacies of the compounds of the present Pd—NHC series on MCF-7, HeLa, A549, B16-F10 and EMT6/AR1 cancer cell lines and also for a comparative study on normal skin cell line L929 and normal epithelial breast cells MCF10A. The said Sulforhodamine B assay is conducted as per reported method (Skehan et al., J. Natl. Cancer Inst. 1990, 82, 1107).

trans-[1-(1R)-menthyl-4-(ethyl)-1,2,4-triazol-5-ylidene]2Pd(OCOCF3)2 [(1R,2R,5S)-1c]
Nuclear accumulation of p53 (in words) (p53 in MCF-7 cells): leads to the nuclear accumulation of p53 | Cell death (in words) (MCF-7 cells [1]; MCF-7): leads to cell death in MCF-7 cells | Dead % (MCF-7 cells [1]; MCF-7, 4 μM): 41 ± 2% | Live % (MCF-7 cells [1]; MCF-7, 4 μM): 59 ± 2% | Dead % (MCF-7 cells [1]; MCF-7, 8 μM): 90 ± 1% | Live % (MCF-7 cells [1]; MCF-7, 8 μM): 10 ± 1% | % of cells in different phases of cell cycle: G1 (MCF-7 cells [2]; MCF-7, 2 μM): 30 ± 2% | % of cells in different phases of cell cycle: G2/M (MCF-7 cells [2]; MCF-7, 2 μM): 35 ± 2% | % of cells in different phases of cell cycle: S (MCF-7 cells [2]; MCF-7, 2 μM): 31 ± 2% | % of cells in different phases of cell cycle: G1 (MCF-7 cells [2]; MCF-7, 4 μM): 18 ± 2% | % of cells in different phases of cell cycle: G2/M (MCF-7 cells [2]; MCF-7, 4 μM): 50 ± 2% | % of cells in different phases of cell cycle: S (MCF-7 cells [2]; MCF-7, 4 μM): 32 ± 3% | Cell cycle block (in words) (MCF-7 cells [2]; MCF-7, 2 and 4 μM): blocks MCF-7 cells at the G2 phase; also recorded: blocked cells at the G2/M phase | PARP cleavage (in words) (PARP-1 in MCF-7 cells): more pronounced than cisplatin; also recorded: cleaves PARP in MCF-7 cells | Mitotic Index (percentage of cells in mitosis) (MCF-7 cells [3]; MCF-7, 2 μM): 3 ± 1% | Mitotic Index (percentage of cells in mitosis) (MCF-7 cells [3]; MCF-7, 4 μM): 3.2 ± 1% | Arrest at mitosis (in words) (MCF-7 cells [3]; MCF-7, Hoechst 33258 DNA morphology): did not arrest cells at mitosis | IC50 (A549 cells): 5.7 ± 1.6 µM

From patent US10421769B2, “Anticancer property studies of chiral palladium N-heterocyclic carbene complexes and process for preparation thereof” (Indian Institute of Technology Bombay, priority 2017, dated 2019)
